Reference: patent US6572860B1, “Immunogenic conjugated polypeptide for treatment of herpes simplex virus” (CEL-SCI Corporation, priority 1997, dated 2003)
“Also recorded” adds a separate entry of the source.

Legend:
[1] = tested on: ultraviolet inactivated HSV; experiment: Delayed type hypersensitivity (DTH), ear pinna swelling at 24, 48 and 96 hours (FIG. 6); assay type: in vivo, Balb/c mice; conditions: 4 weeks after last immunization, 24, 48 and 96 hours after injection of UV inactivated HSV
Description: DTH response was evaluated 4 weeks after the last immunization for the vaccinated mice and three unvaccinated HSV challenged mice which had recovered from disease (Ctrl)
(§1) The protocol used in this experiment differed slightly from that of FIG. 3. Swelling in the right ear pinna was measured by micrometer prior to and at 24, 48 and 96 hours following injection of ultraviolet inactivated HSV and compared to the left ear pinna which had been injected with an uninfected Vero cell extract.

[2] = tested on: ultraviolet inactivated HSV; experiment: Delayed type hypersensitivity (DTH), ear pinna swelling at 48 hours (FIG. 3); assay type: in vivo, Balb/c mice; conditions: vaccinated unchallenged mice, 4 weeks after last immunization, 48 hours after injection of UV inactivated HSV
Description: (§2) Each immunization consisted of 33 nmoles of conjugated polypeptide or non-conjugated antigenic peptide H1 (equivalent to 100 μg of the JH1 vaccine). The peptide was mixed with the Novasome liposomal adjuvant (50% v/v). The mice were immunized twice with a two week interval between inoculations. After an additional two weeks, most of the mice received an intraperitoneal challenge with the EKN clinical strain of HSV-1. The mice were evaluated daily for symptoms. […] Blood was obtained from selected mice for ELISA studies prior to immunization and prior to virus challenge. The results are shown in FIG. 1 for symptom (on a daily basis) and in FIG. 2 for survival following vaccination and sub-lethal challenge.
DTH response was evaluated 4 weeks after the last immunization for the vaccinated mice and three unvaccinated HSV challenged mice which had recovered from disease (C). Swelling of the right ear pinna was measured at 48 hours following injection of ultraviolet inactivated HSV and compared to the left ear pinna which had been injected with buffer.
In another series of parallel experiments Balb/c female mice (n=9) were vaccinated with the H1 peptide or the JH1, GH1 or LH1 conjugated polypeptides according to the same protocol as for the HSV-1 challenge experiment described above.

HSV-1 [3] = experiment: Intraperitoneal challenge of vaccinated mice with an LD50 of HSV-1: symptoms and survival; assay type: in vivo; conditions: Balb/c mice 4 wk old, n=6, vaccinated twice, challenged with an LD50 of HSV-1; for disease symptoms (symptom score 1-5): FIG. 4; for survival / death: FIG. 5
Description: Similar tests as described above were carried out. Balb/c mice (4 wk old) (n=6) were unvaccinated (NO VAC) or vaccinated and revaccinated two weeks later with the H1 peptide or the indicated conjugated polypeptide. The mice were then challenged two weeks later with an LD50 of HSV-1. Symptoms were scored daily as:
(§3) 1. non-specific mild symptoms
(§4) 2. mild swelling of the abdomen
(§5) 3. significant swelling of the abdomen and malaise
The results are shown in FIG. 4 for symptoms, in FIG. 5 for survival and in FIG. 6 for DTH.

HSV-1 [4] = experiment: Intraperitoneal HSV-1 challenge of vaccinated mice, sub-lethal (<LD50) challenge: symptoms and survival; assay type: in vivo, Balb/c mice; conditions: for Symptomatic conditions after viral challenge (symptom score 1-5) / survival after viral challenge: Balb/c mice; for Symptomatic conditions after viral challenge (symptom score 1-5): 2 immunizations of 33 nmoles in Novasome adjuvant, i.p. sub-lethal HSV-1 challenge two weeks later; for survival after viral challenge: sub-lethal i.p. HSV-1 challenge, FIG. 2
Description: An intraperitoneal challenge model using mice test animal was selected although the predominant presentation of HSV disease is not intraperitoneal since a reproducible course of disease occurs following viral challenge; since the viral challenge dose can be well defined and readily delivered by intraperitoneal injection since the symptoms are readily detected and the course of disease can be qualitatively evaluated; and since the relevant parameter of survival may be readily evaluated. Immune function studies may also be conducted in vitro to further characterize the responses to the test vaccines.
In a series of experiments, groups (12 per group) of 3 week old Balb/c female mice (Taconic Farms, Germantown, N.Y.) are immunized and test bled according to the following schedule. Schedule A: immunizations on day 0 and day 14, and two weeks later nine mice of each group are challenged moderately with a lethal dose (<LD50) of HSV (H129 clinical strain) administered intraperitoneally. In this regard, young Balb/c mice show a defined course of disease which progresses from abdominal swelling, lethargy, paraplegia, to death within 1 to 2 weeks. Therefore, the effectiveness of the vaccinations may be readily determined.
as §2
In FIG. 1 symptoms were scored daily as:
as §3, §4, §5

B1 peptide = experiment: ELISA of serum antibody response, B1 peptide as antigen; assay type: in vivo, C57BI6 mice
Description: (§6) The antibody responses of vaccinated and unchallenged mice, vaccinated and challenged mice and unvaccinated and challenged mice were measured by ELISA assay. Serum was obtained 7 weeks after the initial immunization or 2 weeks after the virus challenge. B1 peptide or infected cell extracts were bound to the ELISA plate as antigen. Results are shown in Table 3 and were taken from pooled serum taken from 2 or 3 mice. The results were corrected for non-specific responses by subtracting the absorbance obtained towards an unrelated antigen.

HSV-1 [5] = experiment: HSV-1 challenge of mice vaccinated with B1 peptides: survival (FIG. 7); assay type: in vivo; conditions: C57BI6 mice; for survival (mice surviving of 9): after day 8
Description: In order to further establish the effectiveness of conjugated peptides according to this invention as effective vaccines for treatment of herpes simplex virus, the HSV epitope B1, which is a T cell epitope (aa 498-505, SSIEFARL) of glycoprotein B found in both HSV-1 or HSV-2 (see Hanke, et al, J. Virol. 65:1177-86; and Bonneau, et al, Virology 195:62-70) was selected and evaluated with either peptide J or peptide G or peptide L as described above. Namely, the conjugated peptides GB1, JB1 and LB1, as described in Table 1 above, were tested under the same conditions as previously described except that in place of the Balb/c mice, C57BI6 mice were vaccinated with the B1 conjugated peptides or non-conjugated B1 peptide (SEQ ID NO:4). The mice immunized with the B1 peptide or with the conjugated peptide LB1 were not protected from HSV-1 challenge (0 of 9 or 1 of 9 survival, respectively, after day 8) and, in fact the B1 and LB1 immunized mice fared worse than the control (unvaccinated) mice (2 of 9 survival after day 8).

infected cell extracts = experiment: ELISA of serum antibody response, infected cell extracts as antigen (antivirus response); assay type: in vivo, C57BI6 mice; conditions: vaccinated and HSV-1 challenged mice, pooled serum, 2 weeks after virus challenge
Description: as §6

[6] = tested on: ultraviolet inactivated HSV; experiment: DTH tests on unchallenged mice immunized with B1 peptides; assay type: in vivo; conditions: 3 unchallenged immunized C57BI6 mice
Description: as §1

peptide H1 = experiment: ELISA of antibody responses to peptide H1; assay type: in vivo; conditions: immunized Balb/c mice
Description: as §2

[7] = 9 challenged mice per group, sub-lethal HSV-1 challenge, FIG. 1
[8] = vaccinated and unchallenged mice, pooled serum of 2 or 3 mice, 7 weeks after initial immunization

Row | Substance | DTH response (redness and swelling of ear pinna) [1] | DTH response (redness and swelling of ear pinna) [2] | disease symptoms (symptom score 1-5) (HSV-1 [3]) | survival / death (HSV-1 [3]) | number of mice showing significant symptoms (HSV-1 [4]; [7]) | number of mice that died (HSV-1 [4]; [7]) | Symptomatic conditions after viral challenge (symptom score 1-5) (HSV-1 [4]; FIG. 1) | survival after viral challenge (HSV-1 [4]) | B1 PEPTIDE RESPONSE (ELISA absorbance, corrected for non-specific response) (B1 peptide; [8]) | protection from HSV-1 challenge (HSV-1 [5]) | survival (HSV-1 [5]) [%] | survival (mice surviving of 9) (HSV-1 [5]) | ANTIVIRUS RESPONSE (ELISA absorbance, corrected for non-specific response) (infected cell extracts) | DTH response [6] | Antibody responses to the antigenic peptide by ELISA (peptide H1) | B1 PEPTIDE RESPONSE (ELISA absorbance, corrected for non-specific response) (B1 peptide; vaccinated and HSV-1 challenged mice, pooled serum, 2 weeks after virus challenge)
1 | DLL KN GER IEK VEG GGL YRT FAG NPR A (SEQ ID NO:10) (DLLKNGERIEKVEGGGLYRTFAGNPRA) [JH1, conjugated polypeptide of Peptide J (β-2 microglobulin), GGG spacer and peptide H1 of ICP27] | DTH was observed on each day | DTH was observed | protected from disease symptoms | protected from disease symptoms and death | two | one | protected from disease | maximal survival | – | – | – | – | – | – | – | –
2 | DLL KNG ERI EKV EGG GSS IEF ARL (SEQ ID NO:16) (DLLKNGERIEKVEGGGSSGSSIEFARL) [JB1, conjugated polypeptide of Peptide J, GGG spacer and peptide B1 of glycoprotein B] | – | – | – | – | – | – | – | – | 0.025 | partial protection | 44.4 | 4 of 9 | 0.445 | exhibited a DTH response | – | –
3 | LHG PEI LDV PST GGG LYR TFA GNP RA (SEQ ID NO:13) (LHGPEILDVPSTGGGLYRTFAGNPRA) [LH1, conjugated polypeptide of Peptide L, GGG spacer and peptide H1] | Some swelling but no redness was observed for some but not all of the mice | not | severe symptoms | death | – | – | more severe symptoms throughout the course of infection and death; also recorded: seemed to exacerbate the disease symptoms | seemed to exacerbate the disease symptoms | – | – | – | – | – | – | – | –
4 | LHG PEI LDV PST GGG SSI EFA RL (SEQ ID NO:18) (LHGPEILDVPSTGGGSSIEFARL) [LB1, conjugated polypeptide of Peptide L, GGG spacer and peptide B1] | – | – | – | – | – | – | – | – | 0.031 | not protected | – | 1 of 9 | – | – | – | –
5 | LYRTFAGNPRA (SEQ ID NO:1) [H1, non-conjugated antigenic peptide, amino acid residues 322 to 332 of the ICP27 protein of HSV-1, reference compound] | Some swelling but no redness was observed for some but not all of the mice | not | severe symptoms | death | – | – | more severe symptoms throughout the course of infection and death; also recorded: seemed to exacerbate the disease symptoms | seemed to exacerbate the disease symptoms | – | – | – | – | – | – | undetectable | –
6 | NGQ EEK AGV VST GLI GGG LYR TFA GNP RA (SEQ ID NO:12) (NGQEEKAGVVSTGLIGGGLYRTFAGNPRA) [GH1, conjugated polypeptide of Peptide G, GGG spacer and peptide H1] | Some swelling but no redness was observed for some but not all of the mice | not | severe symptoms | death | – | – | more severe symptoms throughout the course of infection and death; also recorded: seemed to exacerbate the disease symptoms | seemed to exacerbate the disease symptoms | – | – | – | – | – | – | – | –
7 | NGQ EEK AGV VST GLI GGG SSI EFA RL (SEQ ID NO:17) (NGQEEKAGVVSTGLIGGGSSIEFARL) [GB1, conjugated polypeptide of Peptide G, GGG spacer and peptide B1] | – | – | – | – | – | – | – | – | 0.035 | partial protection | 55.5 | 5 of 9 | – | did not exhibit a DTH response | – | 0.017
8 | SSIEFARL (SEQ ID NO:4) [B1, non-conjugated antigenic peptide, amino acid residues 498 to 505 from glycoprotein B of HSV-1, reference compound] | – | – | – | – | – | – | – | – | 0.031 | not protected | – | 0 of 9 | – | did not exhibit a DTH response | – | –
